Measurements as given in patent US7002012B2, “Substituted (1,3-bis(cyclohexylmethyl)-1,2,3,6-tetrahydro-2,6-dioxo-9h-purin-8-YI)phenyl derivatives, their preparation and their use in the treatment of inflammatory conditions and immune disorders” (SmithKline Beecham Corporation, priority 1997, dated 2006).

What was measured:
male Lewis rats [1] = assay: Carrageenan Pleurisy Assay; assay type: in vivo, rat; conditions: for CARRAGEENAN PLEURISY (4 hr) LOCAL ED50 (MG/RAT) CELLS: inhibition of inflammatory cells (neutrophils) in pleural exudate four hours after carrageenan 0.075 mg/rat; for CARRAGEENAN PLEURISY (4 hr) LOCAL ED50 (MG/RAT) CELLS / CARRAGEENAN PLEURISY (4 hr) LOCAL ED50 (MG/RAT) EDEMA: local administration; for CARRAGEENAN PLEURISY (4 hr) LOCAL ED50 (MG/RAT) EDEMA: inhibition of pleural edema four hours after carrageenan 0.075 mg/rat
Method: The antiinflammatory activity of compounds of the invention was determined by the procedure of Vinegar, R, et al., Proc. Soc. Exp. Biol. Med., 1981, 168, 24–32, using male Lewis rats of 150±±}20 grams. The carrageenan dose was 0.075 mg/rat. Pleural exudate was harvested four hours after injection of carrageenan. Acute antiinflammatory activity was determined by inhibition of pleural edema and inflammatory cells (neutrophils) from a negative (vehicle) control group.

male Lewis rats [2] = assay: Acetic Acid Colitis Assay; assay type: in vivo, rat; conditions: for ACETIC ACID COLITIS (24 hr) ACTIVE DOSE [MG/KG] (ROUTE) TISSUE WEIGHT: colon weight (edema); for ACETIC ACID COLITIS (24 hr) ACTIVE DOSE [MG/KG] (ROUTE) MPO: mucosal MPO levels
Method: Compounds were administered either orally or rectally 24, 16 and 4 hours prior to the 40 second instillation of 3% acetic acid solution in the proximal 6 cm of the colon under light anesthesia. The colon was immediately washed with 5 cc of saline. 24 hours later the rats were sacrificed and 6 cm of the proximal colon was excised weighed for edema. Neutrophil inflammation was determined by measuring MPO levels in the scraped colonic mucosa from these rats.

Male CD-1 mice = assay: In Vivo Septic Shock Model: C Parvum/LPS Shock; conditions: oral dose 75 mg/kg, 2 hours before the LPS and at the same time as the LPS
Method: Male CD-1 mice, 25–30 g (Charles River: Raleigh, N.C.), are injected intravenously (i.v.) with 100 μμ}g killed C. Parvum (Coparvax; Burroughs Wellcome, RTP, NC).Ten days later the mice are injected i.v. with 20 μμ}g E. Coli 026:B6 lipopolysaccharide (LPS; Difco Labs, Detroit, Mich.) in the presence of the analgesic butorphenol (150 μμ}g per mouse).
The test compounds are dissolved in dimethyl sulphoxide and diluted into 0.5% methyl cellulose and then dosed orally 2 hours before the LPS and at the same time as the LPS.

[3] = ic = intracolonic administration

| Compound | CARRAGEENAN PLEURISY (4 hr) LOCAL ED50 (MG/RAT) CELLS (male Lewis rats [1]) | CARRAGEENAN PLEURISY (4 hr) LOCAL ED50 (MG/RAT) EDEMA (male Lewis rats [1]) | other results |
| --- | --- | --- | --- |
| C[C@@H]1C[C@H]2[C@@H]3CCC4=CC(=O)C=C[C@]4(C)[C@@]3(F)[C@@H](O)C[C@]2(C)[C@@]1(O)C(=O)CO [Dexamethasone, reference compound] | 0.02 MG/RAT | 0.015 MG/RAT | ACETIC ACID COLITIS (24 hr) ACTIVE DOSE [MG/KG] (ROUTE) TISSUE WEIGHT (male Lewis rats [2]; [3]): 0.17 mg/kg; ACETIC ACID COLITIS (24 hr) ACTIVE DOSE [MG/KG] (ROUTE) MPO (male Lewis rats [2]; [3]): 0.03 mg/kg |
| COCCOCCOCCOCCOCCOCCOCCOCCOCCOCCOC(=O)/C=C/c1ccc(-c2nc3c(=O)n(CC4CCCCC4)c(=O)n(CC4CCCCC4)c3[nH]2)cc1 [Example 9, (E)-4-(1,3-Bis(cyclohexylmethyl)-1,2,3,6-tetrahydro-2,6-dioxo-9H-purin-8-yl)cinnamic Acid Decaethylene Glycol Methyl Ether Ester] | 0.02 MG/RAT | 0.2 MG/RAT | % Survivors (Male CD-1 mice): 50%; Alive/Total (Male CD-1 mice): 4/8; ACETIC ACID COLITIS (24 hr) ACTIVE DOSE [MG/KG] (ROUTE) TISSUE WEIGHT (male Lewis rats [2]; [3]): 5.0 mg/kg; ACETIC ACID COLITIS (24 hr) ACTIVE DOSE [MG/KG] (ROUTE) MPO (male Lewis rats [2]; [3]): 5.0 mg/kg |
| COCCOCCOCCOCCOCCOCCOCCOCCOCCOC(=O)/C=C/c1ccc(-c2nc3c(=O)n(CC4CCCCC4)c(=O)n(CC4CCCCC4)c3[nH]2)cc1 [Example 10, (E)-4-(1,3-Bis(cyclohexylmethyl)-1,2,3,6-tetrahydro-2,6-dioxo-9H-purin-8-yl)cinnamic Acid Nonaethylene Glycol Methyl Ether Ester] | 0.5 MG/RAT | 0.5 MG/RAT | ACETIC ACID COLITIS (24 hr) ACTIVE DOSE [MG/KG] (ROUTE) TISSUE WEIGHT (male Lewis rats [2]; po = oral administration): 50 mg/kg; ACETIC ACID COLITIS (24 hr) ACTIVE DOSE [MG/KG] (ROUTE) MPO (male Lewis rats [2]; po = oral administration): 50 mg/kg |
| O=C(O)/C=C/c1ccc(-c2nc3c(=O)n(CC4CCCCC4)c(=O)n(CC4CCCCC4)c3[nH]2)cc1 [compound 1, (E)-4-[1,3 Bis(cyclohexylmethyl)-1,2,3,6-tetrahydro-2,6-dioxo-9H-purin-8-yl]cinnamic acid, reference compound] | – | – | activity in Carrageenan Pleurisy Assay (male Lewis rats [1]): inactive; % Survivors (Male CD-1 mice): 25%; Alive/Total (Male CD-1 mice): 2/8; activity in Acetic Acid Colitis Assay (male Lewis rats [2]): inactive |
| (E)-4-(1,3-Bis(cyclohexylmethyl)-1,2,3,6-tetrahydro-2,6-dioxo-9H-purin-8-yl)cinnamic Acid Polyethylene Glycol (n=13) Ester [Example 18] | 0.1 MG/RAT | 0.1 MG/RAT | – |
| (E)-4-(1,3-Bis(cyclohexylmethyl)-1,2,3,6-tetrahydro-2,6-dioxo-9H-purin-8-yl)cinnamic Acid Polyethylene Glycol (n=15) Methyl Ether Ester [Example 15] | 0.4 MG/RAT | 0.2 MG/RAT | ACETIC ACID COLITIS (24 hr) ACTIVE DOSE [MG/KG] (ROUTE) TISSUE WEIGHT (male Lewis rats [2]; po = oral administration): inactive; ACETIC ACID COLITIS (24 hr) ACTIVE DOSE [MG/KG] (ROUTE) MPO (male Lewis rats [2]; po = oral administration): 50 mg/kg |
| (E)-4-(1,3-Bis(cyclohexylmethyl)-1,2,3,6-tetrahydro-2,6-dioxo-9H-purin-8-yl)cinnamic Acid Polyethylene Glycol (n=18.9) Ester [Example 17] | 0.1 MG/RAT | 0.1 MG/RAT | – |
| (E)-4-(1,3-Bis(cyclohexylmethyl)-1,2,3,6-tetrahydro-2,6-dioxo-9H-purin-8-yl)cinnamic Acid Polyethylene Glycol (n=32.2) Ester [Example 16] | 0.2 MG/RAT | 0.2 MG/RAT | – |
| (E)-4-(1,3-Bis(cyclohexylmethyl)-1,2,3,6-tetrahydro-2,6-dioxo-9H-purin-8-yl)cinnamic Acid Polyethylene Glycol (n=41.5) Methyl Ether Ester [Example 14] | Inactive | 0.5 MG/RAT | – |
